A short description of data set [1]: Glass transition temperature Tg and morphology M by means of DSC. The class given is physicochemical.
Data set [2] can be described thus: Decomposition temperature Td by means of TGA. The class given is physicochemical.
The nature of data set [3]: physchem. As to conditions: organic solvent or mixture.

The solubility is the concentration that dissolves in the medium under given conditions.

≈ marks a conversion by molar mass, not a printed value.

For the compound `COc1ccc(N(c2ccc(OC)cc2)c2ccc3c(c2)C(C)(C)c2cc(N(c4ccc(OC)cc4)c4ccc(-c5ccc(N(c6ccc(OC)cc6)c6ccc7c(c6)C(C)(C)c6cc(N(c8ccc(OC)cc8)c8ccc(OC)cc8)ccc6-7)cc5)cc4)ccc2-3)cc1` [ID518], in data set [1], the “glass transition temperature Tg” value is 150 °C. In addition, the “decomposition temperature Td” value in data set [2] stood at 430 °C. Moreover, the solubility is 400 to 800 mg/mL (≈ 324 to 647 mM) in data set [3] (solubility L in chlorobenzene), more than 400 mg/mL in data set [3] (solubility in Ethyl acetate), 550 to 1100 mg/mL (≈ 445 to 890 mM) in data set [3] (solubility in Tetrahydrofuran) and 160 to 240 mg/mL (≈ 129 to 194 mM) in data set [3] (solubility in Toluene).
For `COc1ccc(N(c2ccc(OC)cc2)c2ccc(-c3ccc(N(c4ccc(OC)cc4)c4ccc5c(c4)c4cc(N(c6ccc(OC)cc6)c6ccc(-c7ccc(N(c8ccc(OC)cc8)c8ccc(OC)cc8)cc7)cc6)ccc4n5-c4ccccc4)cc3)cc2)cc1` [ID522], the “glass transition temperature Tg” value in data set [1] amounted to 158 °C. In addition, the “decomposition temperature Td” value in data set [2] was 450 °C. Besides, the solubility in data set [3] (solubility L in chlorobenzene) lay within 900 to 1400 mg/mL (≈ 723 to 1120 mM); in data set [3] (solubility in Ethyl acetate), 600 to 1200 mg/mL (≈ 482 to 964 mM); in data set [3] (solubility in Tetrahydrofuran) it was 400 to 600 mg/mL (≈ 321 to 482 mM); in data set [3] (solubility in Toluene), 490 to 980 mg/mL (≈ 394 to 787 mM).
Turning to `COc1ccc(N(c2ccc(OC)cc2)c2ccc(-c3ccc(N(c4ccc(OC)cc4)c4ccc(-c5ccc(N(c6ccc(OC)cc6)c6ccc(-c7ccc(N(c8ccc(OC)cc8)c8ccc(OC)cc8)cc7)cc6)s5)s4)cc3)cc2)cc1` [ID575], the “glass transition temperature Tg” value in data set [1] was found to be 110 °C. For the same compound, in data set [2], the “decomposition temperature Td” value stood at 440 °C. Further, the solubility in data set [3] (solubility L in chlorobenzene) is more than 400 mg/mL.
As to `COc1ccc(N(c2ccc(OC)cc2)c2ccc3c(c2)C2(c4cc(N(c5ccc(OC)cc5)c5ccc(OC)cc5)ccc4-3)c3cc(N(c4ccc(OC)cc4)c4ccc(OC)cc4)ccc3-c3ccc(N(c4ccc(OC)cc4)c4ccc(OC)cc4)cc32)cc1` [spiro-MeOTAD, 2,2′,7,7′-tetrakis(N,N-di-p-methoxyphenyl-amine)-9,9′-spirobifluorene, reference compound], in data set [1], the “glass transition temperature Tg” value is 120 °C. In addition, in data set [2], the “decomposition temperature Td” value was 440 °C. For the same compound, the solubility in data set [3] (solubility L in chlorobenzene) is 200 to 230 mg/mL (≈ 163 to 188 mM); in data set [3] (solubility in Anisole), 65 to 75 mg/mL (≈ 53 to 61.2 mM); in data set [3] (solubility in Ethyl acetate), less than 6 mg/mL; in data set [3] (solubility in Tetrahydrofuran), 120 to 160 mg/mL (≈ 97.9 to 131 mM); in data set [3] (solubility in Toluene), 100 mg/mL (≈ 81.6 mM).
On to `COc1ccc(N(c2ccc(-c3ccc(N(c4ccc(OC)cc4)c4ccc(-c5ccc(N(c6ccc(OC)cc6)c6ccc7c(c6)C(C)(C)c6ccccc6-7)cc5)cc4)cc3)cc2)c2ccc(-c3ccc(N(c4ccc(OC)cc4)c4ccc5c(c4)C(C)(C)c4ccccc4-5)cc3)cc2)cc1` [ID453], for which, in data set [1], the “glass transition temperature Tg” value was 156 °C. For the same compound, the “decomposition temperature Td” value in data set [2] was determined as 440 °C. In addition, the solubility in data set [3] (solubility L in chlorobenzene) was 450 to 700 mg/mL (≈ 339 to 527 mM); in data set [3] (solubility in Ethyl acetate) it was 40 mg/mL (≈ 30.1 mM); in data set [3] (solubility in Tetrahydrofuran), 340 to 680 mg/mL (≈ 256 to 512 mM); in data set [3] (solubility in Toluene) it was 170 to 230 mg/mL (≈ 128 to 173 mM).
For the compound `COc1ccc(N(c2ccc(OC)cc2)c2ccc(N(c3ccccc3)c3ccc(-c4ccc(N(c5ccccc5)c5ccc(N(c6ccc(OC)cc6)c6ccc(OC)cc6)cc5)cc4)cc3)cc2)cc1` [ID320], the “glass transition temperature Tg” value in data set [1] is 96 °C. The “decomposition temperature Td” value in data set [2] came to 450 °C. The solubility is 760 to 1000 mg/mL (≈ 806 to 1060 mM) in data set [3] (solubility L in chlorobenzene), 140 mg/mL (≈ 148 mM) in data set [3] (solubility in Ethyl acetate), more than 280 mg/mL in data set [3] (solubility in Tetrahydrofuran) and 280 mg/mL (≈ 297 mM) in data set [3] (solubility in Toluene).
On to `COc1ccc(N(c2ccc(-c3ccc(N(c4ccc(OC)cc4)c4ccc(-c5ccc(N(c6ccc(OC)cc6)c6ccc(C)c(C)c6)cc5)cc4)cc3)cc2)c2ccc(-c3ccc(N(c4ccc(OC)cc4)c4ccc(C)c(C)c4)cc3)cc2)cc1` [ID519], for which, in data set [1], the “glass transition temperature Tg” value stood at 128 °C. For the same compound, in data set [2], the “decomposition temperature Td” value stood at 450 °C. Further, the solubility in data set [3] (solubility L in chlorobenzene) was 450 to 900 mg/mL (≈ 391 to 782 mM); in data set [3] (solubility in Ethyl acetate), more than 460 mg/mL; in data set [3] (solubility in Tetrahydrofuran), more than 500 mg/mL; in data set [3] (solubility in Toluene), 240 to 350 mg/mL (≈ 208 to 304 mM).
For `COc1ccc(N(c2ccc(N(c3ccccc3)c3ccc(N(c4ccccc4)c4ccc(N(c5ccc(OC)cc5)c5ccc6c(c5)C(C)(C)c5ccccc5-6)cc4)cc3)cc2)c2ccc3c(c2)C(C)(C)c2ccccc2-3)cc1` [ID366], the “glass transition temperature Tg” value in data set [1] was found to be 127 °C. Besides, the “decomposition temperature Td” value in data set [2] is 460 °C. For the same compound, the solubility in data set [3] (solubility L in chlorobenzene) is more than 1100 mg/mL; in data set [3] (solubility in Ethyl acetate), more than 560 mg/mL; in data set [3] (solubility in Tetrahydrofuran) it was more than 440 mg/mL; in data set [3] (solubility in Toluene) it was more than 380 mg/mL.
As for `CCOc1ccc(N(c2ccc(C3=CCC(N(c4ccc(OC)cc4)c4ccc(-c5ccc(N(c6ccc(OC)cc6)c6ccc(-c7ccc(N(c8ccc(OCC)cc8)c8cccc9ccccc89)cc7)cc6)cc5)cc4)C=C3)cc2)c2cccc3ccccc23)cc1` (stereo not drawn) [ID565], in data set [1], the “glass transition temperature Tg” value is 143 °C. In data set [2], the “decomposition temperature Td” value amounted to 450 °C. For the same compound, the solubility is more than 900 mg/mL in data set [3] (solubility L in chlorobenzene); more than 1000 mg/mL in data set [3] (solubility in Anisole); less than 40 mg/mL in data set [3] (solubility in Ethyl acetate); more than 850 mg/mL in data set [3] (solubility in Tetrahydrofuran); 400 to 800 mg/mL (≈ 326 to 653 mM) in data set [3] (solubility in Toluene).
For `COc1ccc(N(c2ccc(OC)cc2)c2ccc(-c3ccc(N(c4ccc(OC)cc4)c4ccc(-c5ccc(N(c6ccc(OC)cc6)c6ccc(-c7ccc(N(c8ccc(OC)cc8)c8ccc(OC)cc8)cc7)cc6)cc5)cc4)cc3)cc2)cc1` [ID367], the “glass transition temperature Tg” value in data set [1] was 136 °C. The “decomposition temperature Td” value in data set [2] came to 450 °C. The solubility in data set [3] (solubility L in chlorobenzene) lay within 700 to 1000 mg/mL (≈ 606 to 865 mM); in data set [3] (solubility in Anisole) it was 450 to 700 mg/mL (≈ 389 to 606 mM); in data set [3] (solubility in Ethyl acetate) it was 70 to 80 mg/mL (≈ 60.6 to 69.2 mM); in data set [3] (solubility in Tetrahydrofuran), 370 to 550 mg/mL (≈ 320 to 476 mM); in data set [3] (solubility in Toluene) it was 320 to 500 mg/mL (≈ 277 to 433 mM).

Source of the values: US20110297235A1, “USE OF TRIARYLAMINE DERIVATIVES AS HOLE-CONDUCTING MATERIALS IN ORGANIC SOLAR CELLS AND ORGANIC SOLAR CELLS CONTAINING SAID TRIARYLAMINE DERIVATIVES” (BASF SE, priority 2009, published 2011).
